These results are taken from US20240158393A1, “PYRIDONE COMPOUNDS AND METHODS OF USE” (Exelixis, Inc., priority 2021, published 2024).

Assay type in all cases: biochemical
One assay addresses T1, Human Axl (Homo sapiens, UniProt P30530).
T1 construct: Human AXL (residues 464-885)
T1 sequence (P30530 1-894 Q764R): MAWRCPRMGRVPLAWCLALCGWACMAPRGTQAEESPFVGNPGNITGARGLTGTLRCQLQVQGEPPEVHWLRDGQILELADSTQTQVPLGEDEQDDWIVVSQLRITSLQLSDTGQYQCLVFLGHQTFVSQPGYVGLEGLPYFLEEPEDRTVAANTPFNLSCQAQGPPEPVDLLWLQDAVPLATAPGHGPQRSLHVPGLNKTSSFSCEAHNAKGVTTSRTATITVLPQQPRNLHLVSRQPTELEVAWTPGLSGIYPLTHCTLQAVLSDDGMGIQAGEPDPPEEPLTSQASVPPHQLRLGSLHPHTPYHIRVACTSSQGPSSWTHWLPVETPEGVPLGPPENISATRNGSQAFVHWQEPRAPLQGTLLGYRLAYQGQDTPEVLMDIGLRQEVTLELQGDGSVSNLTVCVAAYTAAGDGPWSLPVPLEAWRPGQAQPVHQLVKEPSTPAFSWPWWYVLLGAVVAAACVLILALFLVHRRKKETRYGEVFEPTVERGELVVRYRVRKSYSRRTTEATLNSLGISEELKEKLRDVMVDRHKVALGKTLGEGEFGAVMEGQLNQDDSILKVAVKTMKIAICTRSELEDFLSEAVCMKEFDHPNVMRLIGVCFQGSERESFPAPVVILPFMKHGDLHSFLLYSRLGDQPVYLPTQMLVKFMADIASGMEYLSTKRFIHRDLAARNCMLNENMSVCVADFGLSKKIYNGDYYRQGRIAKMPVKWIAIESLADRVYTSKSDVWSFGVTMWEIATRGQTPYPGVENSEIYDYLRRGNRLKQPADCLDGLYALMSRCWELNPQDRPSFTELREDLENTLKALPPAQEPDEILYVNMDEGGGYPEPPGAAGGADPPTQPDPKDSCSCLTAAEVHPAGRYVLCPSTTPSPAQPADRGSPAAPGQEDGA
The assay can be described thus: Human AXL kinase assay (33P radiometric / HTRF KinEase). The settings on record: protocols of Examples A-1 and/or A-2. As for the experimental part:
(§1) Kinase activity and compound inhibition were investigated using the ^33P-Phosphoryl transfer radiometric kinase assay, performed using the KinaseProfiler™ service of Eurofins Pharma Discovery Services UK Limited. Dose-response experiments were performed using nine compound concentrations in a 96-well microtiter plate. For each assay, all compounds were prepared to a 50× final assay concentration (50 μM) in 100% DMSO, then diluted in a half-log series, with the final top concentration at 1 μM. This working stock of the compound was added to the assay well as the first component in the reaction, followed by the remaining components as detailed in the following assay protocols below. The positive control wells (100% kinase activity) contain all components of the reaction including 2% DMSO (control for solvent effects), except the compound of interest. Blank wells contain all components of the reaction, with the reference inhibitor, staurosporine. This reference compound was used to abolish kinase activity and generated the 0% kinase activity base-line. IC50 values were calculated by nonlinear regression analysis using the sigmoidal dose-response (variable slope) curve fit on XLFit version 5.3 (ID Business Solutions).
(§2) Kinase activity and compound inhibition were also investigated using the HTRF® KinEase assay (Cisbio Cat #62TKOPEB) per manufacturer's instructions. In short, compounds were delivered in 300 nL volumes at 10 different concentrations in DMSO (3% final) to empty 384-well assay plates (Corning cat #3824). A mixture of enzyme, 1 μM biotinylated peptide substrate, and buffer in 10 μL volume was added. The assay was started upon the addition of ATP (at Km). The 10 μL reaction was incubated at room temperature. The reaction was stopped upon the addition of detection buffer containing streptavidin-XL665 (5 μL) and TK antibody-Eu3+(5 μL). After a 60 min incubation at room temperature, the fluorescence at 665 nm and 620 nm was read on an Envision microplate reader (Perkin Elmer).
(§3) Kinase activity normalized to DMSO (100% activity) and reference compound at 1 μM and (0% activity) was calculated using the fluorescence ratio […]. IC50 values were calculated by nonlinear regression analysis using a 4-parameter logistic curve fit in ActivityBase XE (IDBS).
(§4) Example A-1: Human Axl (residues H473-A894 with Q764R, 161 nM) was incubated with 8 mM MOPS pH 7.0, 0.2 mM EDTA, 250 μM KKSRGDYMTMQIG (SEQ ID NO:1), 10 mM magnesium acetate and 10 μM [γ-^33P-ATP]. The reaction was initiated by the addition of the Mg/ATP mix. After incubation for 40 minutes at room temperature, the reaction was stopped by the addition of phosphoric acid to a concentration of 0.5%. A reaction aliquot of 10 μL was then spotted onto a P30 filtermat and washed four times for 4 minutes in 0.425% phosphoric acid and once in methanol prior to drying and scintillation counting. Incorporated ^33P was measured using the Wallac Microbeta scintillation counter (Perkin Elmer).
Example A-2: Human AXL (residues 464-885; CarnaBio, 1 ng/well) was also incubated with enzymatic buffer (Cisbio) supplemented with 5 mM MgCl2, 1 mM DTT, and Supplemental Enzymatic Buffer (SEB; Cisbio). The mixture was added to the pre-plated compounds. The reaction was initiated upon addition of ATP at Km (1.0 μM). The reaction was incubated at room temperature for 50 min and stopped upon the addition of SA-XL665 and TK-antibody both diluted in EDTA-containing kinase detection buffer (Cisbio). The kinase activity was calculated as stated above and the IC50 values were reported.
On the technique in general: TR-FRET usually uses a lanthanide donor and a delayed reading to cut background.

The target of the next assay is T2, Human Mer (Homo sapiens, UniProt Q12866).
T2 construct: Human Mer (residues R557-E882 with H628Q and R794A, 0.7 nM); purchased Eurofins Pharma Discovery Services UK Limited (KinaseProfiler service)
T2 sequence (Q12866 557-882 limits assumed): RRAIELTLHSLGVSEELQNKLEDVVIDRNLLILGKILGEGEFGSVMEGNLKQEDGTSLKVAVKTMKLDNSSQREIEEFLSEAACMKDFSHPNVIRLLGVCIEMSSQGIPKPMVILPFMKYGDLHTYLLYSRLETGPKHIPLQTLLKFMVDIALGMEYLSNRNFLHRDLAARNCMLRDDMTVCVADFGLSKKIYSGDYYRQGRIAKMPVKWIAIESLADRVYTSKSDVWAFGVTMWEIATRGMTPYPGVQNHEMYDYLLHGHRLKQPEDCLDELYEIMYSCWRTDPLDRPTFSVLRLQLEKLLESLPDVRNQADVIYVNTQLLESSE
The assay can be described thus: Human Mer kinase assay (33P radiometric / HTRF KinEase). The settings on record: protocols of Examples C-1 and/or C-2. How it is done: as §1, §2, §3
Example C-1: Human Mer (residues R557-E882 with H628Q and R794A, 0.7 nM) was incubated with 8 mM MOPS pH 7.0, 0.2 mM EDTA, 30 mM NaCl, 250 μM GGMEDIYFEFMGGKKK (SEQ ID NO: 2), 10 mM magnesium acetate, and 10 μM [γ-^33P-ATP]. The reaction was initiated by the addition of the Mg/ATP mix. After incubation for 40 minutes at room temperature, the reaction was stopped by the addition of phosphoric acid to a concentration of 0.5%. A reaction aliquot of 10 μL was then spotted onto a P30 filtermat and washed four times for 4 minutes in 0.425% phosphoric acid and once in methanol prior to drying and scintillation counting. Incorporated ^33P was measured using the Wallac Microbeta scintillation counter (Perkin Elmer).
Example C-2: Human MER (residues 528-999; CarnaBio, 1 ng/well) was also incubated with enzymatic buffer (Cisbio) supplemented with 5 mM MgCl2 and 1 mM DTT. The mixture was added to the pre-plated compounds. The reaction was initiated upon addition of ATP at Km (40 μM). The reaction was incubated at room temperature for 60 min and stopped upon the addition of SA-XL665 and TK-antibody both diluted in EDTA-containing kinase detection buffer (Cisbio). The kinase activity was calculated as stated above and the IC50 values were reported.

The target of the next assay is T3, Human Met (Homo sapiens, UniProt P08581).
T3 construct: Human MET (residues 956-1390)
Nature of the assay: Human Met kinase assay (33P radiometric / HTRF KinEase). The settings on record: protocols of Examples D-1 and/or D-2; read-out: c-Met IC50. How it is done: as §1, §2, §3
Example D-1: Human Met (residues R974-S1390 with A1209G and V1290L, 3.4 nM) was incubated with 8 mM MOPS pH 7.0, 0.2 mM EDTA, 250 μM KKKGQEEEYVFIE (SEQ ID NO:3), 1 mM sodium orthovanadate, 5 mM […], 10 mM magnesium acetate, and 10 μM [γ-^33P-ATP]. The reaction was initiated by the addition of the Mg/ATP mix. After incubation for 40 minutes at room temperature, the reaction was stopped by the addition of phosphoric acid to a concentration of 0.5%. A reaction aliquot of 10 μL was then spotted onto a P30 filtermat and washed four times for 4 minutes in 0.425% phosphoric acid and once in methanol prior to drying and scintillation counting. Incorporated ^33P was measured using the Wallac Microbeta scintillation counter (Perkin Elmer).
Example D-2: Human MET (residues 956-1390; CarnaBio, 0.1 ng/well) was also incubated with enzymatic buffer (Cisbio) supplemented with 5 mM MgCl2, 1 mM DTT and 1 mM MnCl2. The mixture was added to the pre-plated compounds. The reaction was initiated upon addition of ATP at Km (3.0 μM). The reaction was incubated at room temperature for 40 min and stopped upon the addition of SA-XL665 and TK-antibody both diluted in EDTA-containing kinase detection buffer (Cisbio). The kinase activity was calculated as stated above and the IC50 values were reported.

The target in a further assay is T4, Human KDR (Homo sapiens, UniProt P35968).
T4 construct: Human KDR (residues K790-V1356, 55 nM); purchased Eurofins Pharma Discovery Services UK Limited (KinaseProfiler, B-1) and/or CarnaBio (B-2)
The assay can be described thus: Human KDR kinase assay (33P radiometric / HTRF KinEase). To be noted: protocols of Examples B-1 and/or B-2. As for the experimental part:
as §1, §2, §3
as §4, with “B-1:” for “A-1:”, “KDR” for “Axl”, “K790-V1356, 55” for “H473-A894 with Q764R, 161”, “0.33 mg/mL myelin basic protein,” for “250 μM KKSRGDYMTMQIG (SEQ ID NO:1),”, “acetate,” for “acetate”
Example B-2: Human KDR (residues 790-1356; CarnaBio, 0.1 ng/well) was also incubated with enzymatic buffer (Cisbio) supplemented with 5 mM MgCl2, 1 mM MnCl2, and 1 mM DTT. The mixture was added to the pre-plated compounds. The reaction was initiated upon addition of ATP at Km (4.0 μM). The reaction was incubated at room temperature for 40 min and stopped upon the addition of SA-XL665 and TK-antibody both diluted in EDTA-containing kinase detection buffer (Cisbio). The kinase activity was calculated as stated above and the IC50 values were reported.

T4 sequence (P35968 790-1356): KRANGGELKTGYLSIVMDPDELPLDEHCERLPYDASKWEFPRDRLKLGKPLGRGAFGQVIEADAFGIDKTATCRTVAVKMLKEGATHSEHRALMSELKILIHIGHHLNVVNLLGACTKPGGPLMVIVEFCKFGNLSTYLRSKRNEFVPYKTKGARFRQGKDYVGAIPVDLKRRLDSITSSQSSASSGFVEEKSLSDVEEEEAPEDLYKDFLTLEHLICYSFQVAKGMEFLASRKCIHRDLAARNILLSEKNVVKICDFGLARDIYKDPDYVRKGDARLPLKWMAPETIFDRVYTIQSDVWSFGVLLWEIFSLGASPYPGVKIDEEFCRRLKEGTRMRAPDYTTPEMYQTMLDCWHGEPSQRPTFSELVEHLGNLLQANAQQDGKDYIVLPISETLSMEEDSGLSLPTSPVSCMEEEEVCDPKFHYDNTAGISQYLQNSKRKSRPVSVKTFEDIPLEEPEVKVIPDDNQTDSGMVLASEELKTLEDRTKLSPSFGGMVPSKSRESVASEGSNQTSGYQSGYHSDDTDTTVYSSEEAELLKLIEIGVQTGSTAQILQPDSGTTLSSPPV
T3 sequence (P08581 974-1390 limits assumed): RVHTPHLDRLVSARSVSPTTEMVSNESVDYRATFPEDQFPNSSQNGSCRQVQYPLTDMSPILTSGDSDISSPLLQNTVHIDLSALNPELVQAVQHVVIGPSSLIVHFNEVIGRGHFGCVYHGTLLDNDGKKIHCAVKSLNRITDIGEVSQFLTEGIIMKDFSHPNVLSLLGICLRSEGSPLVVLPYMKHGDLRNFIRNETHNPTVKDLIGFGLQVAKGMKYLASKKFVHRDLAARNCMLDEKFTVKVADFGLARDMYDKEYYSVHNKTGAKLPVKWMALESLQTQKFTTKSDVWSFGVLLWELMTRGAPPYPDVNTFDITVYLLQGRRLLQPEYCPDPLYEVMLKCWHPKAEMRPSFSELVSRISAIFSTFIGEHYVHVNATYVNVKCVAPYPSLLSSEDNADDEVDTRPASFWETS

As a reminder, the IC50 is the concentration needed to halve the response being measured. `COCCOc1cnc2c(Oc3ccc(NC(=O)c4c(C)nc(C)c(C5=CCCC5)c4O)cc3F)ccnc2c1` [Compound 101, 5-(Cyclopenten-1-yl)-N-[3-fluoro-4-[[7-(2-methoxyethoxy)-1,5-naphthyridin-4-yl]oxy]phenyl]-4-hydroxy-2,6-dimethylpyridine-3-carboxamide]: the IC50 on Human Axl and against Human Mer was no more than 100 nM throughout.
Turning to `COc1cc2nccc(Oc3ccc(NC(=O)c4c5n(c(C)c(C6=CCCC6)c4=O)CCOC5)cc3F)c2nc1OC` [Compound 69, 7-(Cyclopenten-1-yl)-N-[4-[(6,7-dimethoxy-1,5-naphthyridin-4-yl)oxy]-3-fluorophenyl]-6-methyl-8-oxo-3,4-dihydro-1H-pyrido[2,1-c][1,4]oxazine-9-carboxamide], the half-inhibitory concentration (IC50) on Human Met, against Human Mer and on Human KDR was no more than 100 nM in each case.
